Experiments:
Assay in all cases: Test B postemergence
Type in all cases: in vivo
Details in all cases: 13 to 15 days
[1] = system: Surinam grass (Brachiaria decumbens)
In short: (§1)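 Greenhouse test: chemicals are formulated in a surfactant-containing non-phytotoxic solvent and applied either preemergence to planted seeds or postemergence to plants 2 to 18 cm tall. Response is rated visually versus controls after 13 to 15 days, 0 meaning no effect and 100 complete control.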

[2] = system: crabgrass (Digitaria sanguinalis)
In short: as §1

[3] = system: pigweed (Amaranthus retroflexus)
In short: as §1

[4] = system: barnyardgrass (Echinochloa crus-galli)
In short: as §1

[5] = system: morning glory (Ipomoea hederacea)
In short: as §1

[6] = system: velvetleaf (Abutilon theophrasti)
In short: as §1

[7] = system: giant foxtail (Setaria faberii)
In short: as §1

[8] = system: wild oat (Avena fatua)
In short: as §1

[9] = system: wheat (Triticum aestivum)
In short: as §1

[10] = system: blackgrass (Alopecurus myosuroides)
In short: as §1

[11] = system: corn (Zea mays)
In short: as §1

[12] = system: cocklebur (Xanthium strumarium)
In short: as §1

[13] = system: lambsquarters (Chenopodium album)
In short: as §1

[14] = Rate 125 g/ha, scale 0 (no effect) to 100 (complete control)
[15] = Rate 500 g/ha, scale 0 to 100, 0 is no effect, 100 is complete control

## CC(C)(C)c1ccn(C2CCN(c3cccc(C(F)(F)F)c3)C2=O)n1 (stereo not drawn) [Example 3, 3-[3-(1,1-dimethylethyl)-1H-pyrazol-1-yl]-1-[3-(trifluoromethyl)phenyl]-2-pyrrolidinone]
[1]; [14]
  Plant response rating, Surinam grass: 0
[1]; [15]
  Plant response rating, Surinam grass: 20
[2]; [14]
  Plant response rating, Crabgrass: 0
[2]; [15]
  Plant response rating, Crabgrass: 40
[3]; [14]
  Plant response rating, Pigweed: 70
[3]; [15]
  Plant response rating, Pigweed: 90
[4]; [14]
  Plant response rating, Barnyardgrass: 0
[4]; [15]
  Plant response rating, Barnyardgrass: 70
[5]; [14]
  Plant response rating, Morningglory: 0
[5]; [15]
  Plant response rating, Morningglory: 30
[6]; [14]
  Plant response rating, Velvetleaf: 0
[6]; [15]
  Plant response rating, Velvetleaf: 0
[7]; [14]
  Plant response rating, Foxtail, Giant: 0
[7]; [15]
  Plant response rating, Foxtail, Giant: 30
[8]; [14]
  Plant response rating, Wild Oat: 0
[8]; [15]
  Plant response rating, Wild Oat: 0
[9]; [14]
  Plant response rating, Wheat: 0
[9]; [15]
  Plant response rating, Wheat: 0
[10]; [14]
  Plant response rating, Blackgrass: 0
[10]; [15]
  Plant response rating, Blackgrass: 0
[11]; [14]
  Plant response rating, Corn: 0
[11]; [15]
  Plant response rating, Corn: 0
[12]; [14]
  Plant response rating, Cocklebur: 0
[12]; [15]
  Plant response rating, Cocklebur: 30
[13]; [14]
  Plant response rating, Lambsquarters: 80
[13]; [15]
  Plant response rating, Lambsquarters: 100

## O=C1C(n2ccc(C3CC3)n2)SCN1c1cccc(C(F)(F)F)c1 (stereo not drawn) [Compound 26]
[1]; [14]
  Plant response rating, Surinam grass: 20
[1]; [15]
  Plant response rating, Surinam grass: 20
[2]; [14]
  Plant response rating, Crabgrass: 0
[2]; [15]
  Plant response rating, Crabgrass: 20
[3]; [14]
  Plant response rating, Pigweed: 0
[3]; [15]
  Plant response rating, Pigweed: 60
[4]; [14]
  Plant response rating, Barnyardgrass: 0
[4]; [15]
  Plant response rating, Barnyardgrass: 80
[5]; [14]
  Plant response rating, Morningglory: 0
[5]; [15]
  Plant response rating, Morningglory: 10
[6]; [14]
  Plant response rating, Velvetleaf: 20
[6]; [15]
  Plant response rating, Velvetleaf: 20
[7]; [14]
  Plant response rating, Foxtail, Giant: 20
[7]; [15]
  Plant response rating, Foxtail, Giant: 50
[8]; [14]
  Plant response rating, Wild Oat: 0
[8]; [15]
  Plant response rating, Wild Oat: 0
[9]; [14]
  Plant response rating, Wheat: 0
[9]; [15]
  Plant response rating, Wheat: 0
[10]; [14]
  Plant response rating, Blackgrass: 0
[10]; [15]
  Plant response rating, Blackgrass: 0
[11]; [14]
  Plant response rating, Corn: 0
[11]; [15]
  Plant response rating, Corn: 70
[12]; [14]
  Plant response rating, Cocklebur: 50
[12]; [15]
  Plant response rating, Cocklebur: 60
[13]; [14]
  Plant response rating, Lambsquarters: 80
[13]; [15]
  Plant response rating, Lambsquarters: 80

## CC(C)(C)c1ccn(C2SCN(c3cccc(C(F)(F)F)c3)C2=O)n1 (stereo not drawn) [Compound 1]
[1]; [14]
  Plant response rating, Surinam grass: 0
[1]; [15]
  Plant response rating, Surinam grass: 0
[2]; [14]
  Plant response rating, Crabgrass: 0
[2]; [15]
  Plant response rating, Crabgrass: 40
[3]; [14]
  Plant response rating, Pigweed: 90
[3]; [15]
  Plant response rating, Pigweed: 100
[4]; [14]
  Plant response rating, Barnyardgrass: 0
[4]; [15]
  Plant response rating, Barnyardgrass: 50
[5]; [14]
  Plant response rating, Morningglory: 50
[5]; [15]
  Plant response rating, Morningglory: 100
[6]; [14]
  Plant response rating, Velvetleaf: 50
[6]; [15]
  Plant response rating, Velvetleaf: 60
[7]; [14]
  Plant response rating, Foxtail, Giant: 30
[7]; [15]
  Plant response rating, Foxtail, Giant: 60
[8]; [14]
  Plant response rating, Wild Oat: 0
[8]; [15]
  Plant response rating, Wild Oat: 0
[9]; [14]
  Plant response rating, Wheat: 0
[9]; [15]
  Plant response rating, Wheat: 30
[10]; [14]
  Plant response rating, Blackgrass: 0
[10]; [15]
  Plant response rating, Blackgrass: 0
[11]; [14]
  Plant response rating, Corn: 0
[11]; [15]
  Plant response rating, Corn: 60
[12]; [14]
  Plant response rating, Cocklebur: 60
[12]; [15]
  Plant response rating, Cocklebur: 80
[13]; [14]
  Plant response rating, Lambsquarters: 90
[13]; [15]
  Plant response rating, Lambsquarters: 100

## O=C1C(n2cc(Cl)c(C3CC3)n2)CCN1c1cccc(C(F)(F)F)c1 (stereo not drawn) [Compound 12]
[1]; [14]
  Plant response rating, Surinam grass: 0
[1]; [15]
  Plant response rating, Surinam grass: 0
[2]; [14]
  Plant response rating, Crabgrass: 0
[2]; [15]
  Plant response rating, Crabgrass: 0
[3]; [14]
  Plant response rating, Pigweed: 0
[3]; [15]
  Plant response rating, Pigweed: 0
[4]; [14]
  Plant response rating, Barnyardgrass: 0
[4]; [15]
  Plant response rating, Barnyardgrass: 0
[5]; [14]
  Plant response rating, Morningglory: 0
[5]; [15]
  Plant response rating, Morningglory: 0
[6]; [14]
  Plant response rating, Velvetleaf: 0
[6]; [15]
  Plant response rating, Velvetleaf: 0
[7]; [14]
  Plant response rating, Foxtail, Giant: 0
[7]; [15]
  Plant response rating, Foxtail, Giant: 0
[8]; [14]
  Plant response rating, Wild Oat: 0
[8]; [15]
  Plant response rating, Wild Oat: 0
[9]; [14]
  Plant response rating, Wheat: 0
[9]; [15]
  Plant response rating, Wheat: 0
[10]; [14]
  Plant response rating, Blackgrass: 0
[10]; [15]
  Plant response rating, Blackgrass: 0
[11]; [14]
  Plant response rating, Corn: 0
[11]; [15]
  Plant response rating, Corn: 0
[12]; [14]
  Plant response rating, Cocklebur: 0
[12]; [15]
  Plant response rating, Cocklebur: 0
[13]; [14]
  Plant response rating, Lambsquarters: 0
[13]; [15]
  Plant response rating, Lambsquarters: 0

## CCC(C)c1ccn(C2OCN(c3cccc(C(F)(F)F)c3)C2=O)n1 (stereo not drawn) [Compound 24]
[1]; [14]
  Plant response rating, Surinam grass: 0
[1]; [15]
  Plant response rating, Surinam grass: 50
[2]; [14]
  Plant response rating, Crabgrass: 60
[2]; [15]
  Plant response rating, Crabgrass: 90
[3]; [14]
  Plant response rating, Pigweed: 80
[3]; [15]
  Plant response rating, Pigweed: 100
[4]; [14]
  Plant response rating, Barnyardgrass: 70
[4]; [15]
  Plant response rating, Barnyardgrass: 100
[5]; [14]
  Plant response rating, Morningglory: 0
[5]; [15]
  Plant response rating, Morningglory: 40
[6]; [14]
  Plant response rating, Velvetleaf: 0
[6]; [15]
  Plant response rating, Velvetleaf: 0
[7]; [14]
  Plant response rating, Foxtail, Giant: 20
[7]; [15]
  Plant response rating, Foxtail, Giant: 80
[8]; [14]
  Plant response rating, Wild Oat: 0
[8]; [15]
  Plant response rating, Wild Oat: 0
[9]; [14]
  Plant response rating, Wheat: 0
[9]; [15]
  Plant response rating, Wheat: 0
[10]; [14]
  Plant response rating, Blackgrass: 0
[10]; [15]
  Plant response rating, Blackgrass: 0
[11]; [14]
  Plant response rating, Corn: 0
[11]; [15]
  Plant response rating, Corn: 50
[12]; [14]
  Plant response rating, Cocklebur: 20
[12]; [15]
  Plant response rating, Cocklebur: 40
[13]; [14]
  Plant response rating, Lambsquarters: 90
[13]; [15]
  Plant response rating, Lambsquarters: 100

## CC1CCc2cn(C3CCN(c4cccc(C(F)(F)F)c4)C3=O)nc21 (stereo not drawn) [Compound 11]
[1]; [14]
  Plant response rating, Surinam grass: 0
[1]; [15]
  Plant response rating, Surinam grass: 0
[2]; [14]
  Plant response rating, Crabgrass: 0
[2]; [15]
  Plant response rating, Crabgrass: 0
[3]; [14]
  Plant response rating, Pigweed: 0
[3]; [15]
  Plant response rating, Pigweed: 0
[4]; [14]
  Plant response rating, Barnyardgrass: 0
[4]; [15]
  Plant response rating, Barnyardgrass: 0
[5]; [14]
  Plant response rating, Morningglory: 0
[5]; [15]
  Plant response rating, Morningglory: 0
[6]; [14]
  Plant response rating, Velvetleaf: 0
[6]; [15]
  Plant response rating, Velvetleaf: 0
[7]; [14]
  Plant response rating, Foxtail, Giant: 0
[7]; [15]
  Plant response rating, Foxtail, Giant: 0
[8]; [14]
  Plant response rating, Wild Oat: 0
[8]; [15]
  Plant response rating, Wild Oat: 0
[9]; [14]
  Plant response rating, Wheat: 0
[9]; [15]
  Plant response rating, Wheat: 0
[10]; [14]
  Plant response rating, Blackgrass: 0
[10]; [15]
  Plant response rating, Blackgrass: 0
[11]; [14]
  Plant response rating, Corn: 0
[11]; [15]
  Plant response rating, Corn: 0
[12]; [14]
  Plant response rating, Cocklebur: 0
[12]; [15]
  Plant response rating, Cocklebur: 0
[13]; [14]
  Plant response rating, Lambsquarters: 0
[13]; [15]
  Plant response rating, Lambsquarters: 0

Source: US7138361B2, “Herbicidal heterocycles” (E. I. du Pont de Nemours and Company, priority 2000, dated 2006)
